Literature values, collected in article PMC12281572.
Values joined by “and” are separate entries in the source; they are usually repeats but may differ in a detail not shown here. Equal values may be shown once.

Assay: FTIR, 4-fluorophenol as donor (the pK_BHX database, per the paper)
Conditions: CCl4; 25 C

pK_BHX (log10 Kf of the 1:1 H-bond complex with 4-fluorophenol, by FTIR) | Compound
1.98 log units | c1ccc(C2=NCCC2)cc1
2.59 log units | CCCN=CN(C)C
1.8 log units | COC(=O)N(C)C
1.03 log units | CCN(C)Cc1cccc(C(F)(F)F)c1
0.23 log units | C1CCSCC1
1.21 log units | CC(=O)c1ccc(C(C)C)cc1
2.07 log units | CN(C)C(=O)c1ccc(Br)cc1
1.65 log units | c1ccnnc1
1.23 log units | CN(C)c1ccc(C#N)cc1
0.57 log units | N#Cc1ccccc1C(F)(F)F
1.6 log units | S=C1CCCCCN1
1.9 log units | CN(C)C=Nc1ccccc1
-0.01 log units | CCOc1ccccc1
2.02 log units | CN1CC=CCC1
2.93 log units | c1cc(N2CCCC2)ccn1
1.06 log units | COC(=O)C1CCCCC1
0.16 log units | CCCSC
2.1 log units | CN(C)C=NC(=O)c1ccccc1
1.96 log units | CNC=O
2.01 log units | CCc1cccnc1

pK_BHX (log10 Kf of the 1:1 H-bond complex with 4-fluorophenol, by FTIR) | Compound
1.36 log units | O=C(C1CC1)C1CC1
2.3 log units | C#CCN=CN(C)C
0.71 log units | NCC(F)(F)F
1.75 log units | CC(=Nc1ccc(C)cc1)N(C)c1ccccc1
2.61 log units | CC(=O)N1CCCC1
1.66 log units | CC(=Nc1ccccc1)Nc1ccccc1
2.06 log units | CC(C)(C)C(=O)N(C1CCCCC1)C1CCCCC1
1.02 log units | CN(C)C(=S)c1ccccc1
1.06 log units | CCOC(=O)C12CC3CC(CC(C3)C1)C2
0.25 log units | CCSCC
1.44 log units | C1C2CC3CC1CC(C2)C31OC12C1CC3CC(C1)CC2C3 (centres unmarked)
2.03 log units | CC(C)N(C(=O)C(C)(C)C)C(C)C
-0.5 log units | c1ccsc1
3.24 log units | CCCC[N+](CCCC)(CCCC)[N-]C#N
1.26 log units | NCc1cccc([N+](=O)[O-])c1
1.45 log units | CCOC(=O)c1ccc(N(C)C)cc1
1.04 log units | CCOC(=O)C(C)(C)C
2.47 log units | CCN(CC)C(C)=O
1.88 log units | CN(C)CCCn1c2ccccc2c2ccccc21
0.3 log units | CC(C)SC(C)C

pK_BHX (log10 Kf of the 1:1 H-bond complex with 4-fluorophenol, by FTIR) | Compound
-0.22 log units | C#CCCCC
2.62 log units | CN=C(c1ccccc1)N(C)C
1.88 log units | CN1CCN(C)CC1
0.13 log units | C1CSC1
0.53 log units | C1=COCC1
1.07 log units | c1cncnc1
1.74 log units | O=C(N(c1ccccc1)c1ccccc1)N(c1ccccc1)c1ccccc1
-0.37 log units | c1ccc(C2CC2)cc1
1.52 log units | Cc1ccc(N=C(c2ccccc2)N(C)c2ccccc2)cc1
2.35 log units | CN(C)C=NCc1ccccc1
2.4 log units | COc1cccc(CN=CN(C)C)c1
0.9 log units | CC(=O)c1ccccc1Cl
0.39 log units | c1cc2c3c(c1)CCCN3CCC2
2.52 log units | CN(C)C=NC12CC3CC(CC(C3)C1)C2
1.17 log units | O=C(C12CC3CC(CC(C3)C1)C2)C12CC3CC(CC(C3)C1)C2
0.42 log units | O=[N+]([O-])c1ccc(C23CC4CC(CC(C4)C2)C3)cc1
1.97 log units | c1ccc2cnncc2c1
2.2 log units | CNC(C)C

Compound | pK_BHX (log10 Kf of the 1:1 H-bond complex with 4-fluorophenol, by FTIR)
CC12CCC(CC1=O)C2(C)C (centres unmarked) | 1.31 log units
CCCCSCCCC | 0.23 log units
c1cnoc1 | 0.81 log units
CCCCNC | 2.24 log units
CC(=O)c1cccnc1 | 1.39 log units and 0.9 log units
CCCCO | 1.02 log units
c1ccc(-c2ccnc3c2ccc2c(-c4ccccc4)ccnc23)cc1 | 3.26 log units
c1ccncc1 | 1.86 log units
CCSSCC | -0.4 log units
OCC(F)(F)F | -0.28 log units
c1cscn1 | 1.37 log units
c1ccc(Nc2ccccc2)cc1 | -0.3 log units
CCOC(C)(C)C | 1.08 log units
CCS | -0.16 log units
C1CCOCC1 | 1.23 log units
COc1ccc(OC)cc1 | 0.12 log units
CC(=O)Nc1ccccc1 | 1.69 log units
CS(=O)c1ccc([N+](=O)[O-])cc1 (centres unmarked) | 1.58 log units
COc1ccc(C)cc1 | 0.08 log units
Clc1cccnc1 | 1.31 log units
Oc1cccc(C(F)(F)F)c1 | -0.36 log units
NC1CCCCC1 | 2.29 log units
CCCC(=O)c1ccccc1 | 1.04 log units
CC1(C)CCCC(C)(C)N1 | 1.88 log units
CN(C)C=O | 2.1 log units
